Results as given in ChEMBL document CHEMBL1145881, “Pyridone-containing farnesyltransferase inhibitors: synthesis and biological evaluation” (Bioorg Med Chem Lett, 2003).

What was measured:
[1] = target: T1, Geranylgeranyl transferase type I (Homo sapiens, UniProt P49354+P53609); assay: In vitro inhibitory activity against Geranylgeranyl transferase type I; type: protein-complex assay
[2] = target: T2, Protein farnesyltransferase (Homo sapiens, UniProt P49354+P49356); assay: In vitro effective concentration against farnesyltransferase (FT); type: protein-complex assay
[3] = target: T2, Protein farnesyltransferase; assay: In vitro inhibitory activity against farnesyltransferase (FT); type: protein-complex assay
[4] = target: T2, Protein farnesyltransferase
[5] = target: T2, Protein farnesyltransferase; assay: In vitro effective concentration against farnesyltransferase (FT); NA= Not active; type: protein-complex assay
[6] = target: T2, Protein farnesyltransferase; assay: In vitro inhibition of farnesyltransferase (FT) at 100 nM; type: protein-complex assay
[7] = target: T1, Geranylgeranyl transferase type I; assay: In vitro inhibition of Geranylgeranyl transferase type I; NA means Not active; type: protein-complex assay

Structure (SMILES) | IC50 [1] | EC50 [2] | IC50 [3] | EC50 [4] | EC50 [5] | inhibition [6] | IC50 [7]
Cn1cncc1C(OCc1c(-c2cc(Cl)cc(Cl)c2)cc(C#N)c(=O)n1C)c1ccc(C#N)cc1 (stereo not drawn) | 1700 nM | 6.8 nM | 0.46 nM | – | – | – | –
Cn1cncc1C(OCc1c(-c2cc(Cl)ccc2Cl)cc(C#N)c(=O)n1C)c1ccc(C#N)cc1 (stereo not drawn) | 2900 nM | – | 1.6 nM | 1.2 nM | – | – | –
Cn1cncc1C(OCc1c(-c2cccc(Cl)c2Cl)cc(C#N)c(=O)n1C)c1ccc(C#N)cc1 (stereo not drawn) | 2500 nM | – | 6.1 nM | – | Not Active | – | –
Cn1cncc1C(OCc1[nH]c(=O)c(C#N)cc1-c1cccc(Cl)c1)c1ccc(C#N)cc1 (stereo not drawn) | 820 nM | > 100 nM | 0.85 nM | – | – | – | –
Cn1cncc1C(OCc1c(-c2cc(Cl)cc(Cl)c2)cc(C#N)c(=O)n1C)c1ccc(C#N)c(I)c1 (stereo not drawn) | 7500 nM | > 100 nM | 0.81 nM | – | – | – | –
Cn1cncc1C(OCc1c(-c2cc(Cl)cc(Cl)c2)cc(C#N)c(=O)n1C)c1ccc(C#N)c(Cl)c1 (stereo not drawn) | 190 nM | 16 nM | 0.77 nM | – | – | – | –
Cn1cncc1C(OCc1c(-c2cccc(Cl)c2)cc(C#N)c(=O)n1C)c1ccc(C#N)c(-c2cccc(Cl)c2)c1 (stereo not drawn) | 94 nM | 21 nM | 1 nM | – | – | – | –
Cn1cncc1C(OCc1c(-c2cc(Cl)cc(Cl)c2)cc(C#N)c(=O)n1C)c1ccc(C#N)c(-c2cccc(Cl)c2)c1 (stereo not drawn) | 120 nM | – | 2 nM | – | Not Active | – | –
Cn1cncc1C(OCc1c(-c2cccc(Cl)c2)cc(C#N)c(=O)n1CC1CC1)c1ccc(C#N)cc1 (stereo not drawn) | 2000 nM | 4.8 nM | 0.5 nM | – | – | – | –
Cc1ncc(C(OCc2c(-c3cccc(Cl)c3)cc(C#N)c(=O)n2C)c2ccc(C#N)cc2)n1C (stereo not drawn) | > 900 nM | – | 5.3 nM | – | – | 75% | –
Cn1c(COC(c2ccc(C#N)cc2)c2c[nH]cn2)c(-c2cccc(Cl)c2)cc(C#N)c1=O (stereo not drawn) | – | – | 71 nM | – | Not Active | – | Not Active
Cn1cncc1C(OCc1c(-c2cccc(F)c2F)cc(C#N)c(=O)n1C)c1ccc(C#N)cc1 (stereo not drawn) | 3400 nM | – | 6.3 nM | – | Not Active | – | –
Cn1cncc1C(OCc1c(-c2cccc(Cl)c2F)cc(C#N)c(=O)n1C)c1ccc(C#N)cc1 (stereo not drawn) | 1500 nM | 24 nM | 1.8 nM | – | – | – | –
CCCn1c(COC(c2ccc(C#N)cc2)c2cncn2C)c(-c2cccc(Cl)c2)cc(C#N)c1=O (stereo not drawn) | 3000 nM | 12 nM | 0.036 nM | – | – | – | –
Cn1cncc1C(OCc1ccc(C#N)cn1)c1ccc(C#N)c(-c2cccc3ccccc23)c1 (stereo not drawn) | – | 5.9 nM | 0.73 nM | – | – | – | –
Cn1c(COC(c2ccc(C#N)cc2)c2cncs2)c(-c2cc(Cl)cc(Cl)c2)cc(C#N)c1=O (stereo not drawn) | > 10000 nM | > 100 nM | 1.9 nM | – | – | – | –
CCn1c(COC(c2ccc(C#N)cc2)c2cncn2C)c(-c2cccc(Cl)c2)cc(C#N)c1=O (stereo not drawn) | 3300 nM | 2.9 nM | 0.73 nM | – | – | – | –

Results, then the molecule that gave them:

IC50 [1] | EC50 [2] | IC50 [3] | EC50 [4] | EC50 [5] | inhibition [6] | IC50 [7] | Structure (SMILES)
1400 nM | 3.9 nM | 0.73 nM | – | – | – | – | Cn1cncc1C(OCc1c(-c2ccc(OC(F)(F)F)cc2)cc(C#N)c(=O)n1C)c1ccc(C#N)cc1 (stereo not drawn)
290 nM | > 100 nM | 0.42 nM | – | – | – | – | Cn1cncc1C(OCc1c(-c2cc(Cl)cc(Cl)c2)cc(C#N)c(=O)n1C)c1ccc(C#N)c(Br)c1 (stereo not drawn)
5500 nM | 10 nM | 1.5 nM | – | – | – | – | Cn1cncc1C(OCc1c(-c2ccc(F)c(F)c2)cc(C#N)c(=O)n1C)c1ccc(C#N)cc1 (stereo not drawn)
6200 nM | 19 nM | 0.69 nM | – | – | – | – | Cn1cncc1C(OCc1c(-c2ccc3c(c2)OC(F)(F)O3)cc(C#N)c(=O)n1C)c1ccc(C#N)cc1 (stereo not drawn)
3400 nM | 2.1 nM | 0.51 nM | – | – | – | – | Cn1cncc1C(OCc1c(-c2cccc(Br)c2)cc(C#N)c(=O)n1C)c1ccc(C#N)cc1 (stereo not drawn)
2300 nM | 86 nM | 0.49 nM | – | – | – | – | Cn1cncc1C(OCc1c(-c2ccc(Cl)c(Cl)c2)cc(C#N)c(=O)n1C)c1ccc(C#N)cc1 (stereo not drawn)
15000 nM | 110 nM | 2.7 nM | – | – | – | – | Cn1cncc1C(OCc1c(-c2cc(F)ccc2F)cc(C#N)c(=O)n1C)c1ccc(C#N)cc1 (stereo not drawn)
610 nM | 39 nM | 1.3 nM | – | – | – | – | Cn1cncc1C(OCc1c(-c2cccc(Cl)c2)cc(C#N)c(=O)n1C)c1ccc(C#N)c(Br)c1 (stereo not drawn)
30 nM | > 100 nM | 1.3 nM | – | – | – | – | Cn1cncc1C(OCc1c(-c2ccc(OC(F)(F)F)cc2)cc(C#N)c(=O)n1C)c1ccc(C#N)c(-c2cccc(Cl)c2)c1 (stereo not drawn)
220 nM | 10 nM | 0.89 nM | – | – | – | – | Cn1cncc1C(OCc1c(-c2ccc(OC(F)(F)F)cc2)cc(C#N)c(=O)n1C)c1ccc(C#N)c(Br)c1 (stereo not drawn)
> 1000 nM | 88 nM | 0.75 nM | – | – | – | – | Cn1cncc1C(OCc1c(-c2cccc(Cl)c2)cc(C#N)c(=O)n1C)c1ccc(C#N)c(I)c1 (stereo not drawn)
1050 nM | 3.9 nM | 0.42 nM | – | – | – | – | Cn1cncc1C(OCc1c(-c2cccc(OC(F)(F)F)c2)cc(C#N)c(=O)n1C)c1ccc(C#N)cc1 (stereo not drawn)
> 10000 nM | 11 nM | 2.1 nM | – | – | – | – | Cn1cncc1C(OCc1c(-c2cccc(F)c2)cc(C#N)c(=O)n1C)c1ccc(C#N)cc1 (stereo not drawn)
3200 nM | 4.7 nM | 0.41 nM | – | – | – | – | COc1cccc(-c2cc(C#N)c(=O)n(C)c2COC(c2ccc(C#N)cc2)c2cncn2C)c1 (stereo not drawn)
150 nM | 15 nM | 0.36 nM | – | – | – | – | Cn1cncc1C(OCc1c(-c2ccc(OC(F)(F)F)cc2)cc(C#N)c(=O)n1C)c1ccc(C#N)c(Cl)c1 (stereo not drawn)
– | – | – | – | Not Active | – | – | Cn1c(COC(c2ccc(C#N)cc2)c2cncs2)c(-c2ccc(OC(F)(F)F)cc2)cc(C#N)c1=O (stereo not drawn)
3300 nM | 2.1 nM | 0.42 nM | – | – | – | – | Cn1cncc1C(OCc1c(-c2ccc3c(c2)OCO3)cc(C#N)c(=O)n1C)c1ccc(C#N)cc1 (stereo not drawn)
4300 nM | > 100 nM | 5.5 nM | – | – | – | – | Cn1cncc1C(OCc1c(-c2ccc(F)cc2F)cc(C#N)c(=O)n1C)c1ccc(C#N)cc1 (stereo not drawn)
1500 nM | 0.81 nM | 0.67 nM | – | – | – | – | CCOc1cccc(-c2cc(C#N)c(=O)n(C)c2COC(c2ccc(C#N)cc2)c2cncn2C)c1 (stereo not drawn)
1900 nM | 15 nM | 1.1 nM | – | – | – | – | Cn1cncc1C(OCc1c(-c2ccc(F)c(Cl)c2)cc(C#N)c(=O)n1C)c1ccc(C#N)cc1 (stereo not drawn)
110 nM | > 100 nM | 3.9 nM | – | – | – | – | Cn1cncc1C(OCc1c(-c2ccc(OC(F)(F)F)cc2)cc(C#N)c(=O)n1C)c1ccc(C#N)c(-c2ccccc2Cl)c1 (stereo not drawn)
160 nM | > 100 nM | 6.5 nM | – | – | – | – | Cn1cncc1C(OCc1c(-c2ccc(OC(F)(F)F)cc2)cc(C#N)c(=O)n1C)c1ccc(C#N)c(-c2ccc(Cl)cc2)c1 (stereo not drawn)
1800 nM | 17 nM | 0.7 nM | – | – | – | – | Cn1cncc1C(OCc1c(-c2cc(F)cc(Cl)c2)cc(C#N)c(=O)n1C)c1ccc(C#N)cc1 (stereo not drawn)
890 nM | 24 nM | 0.97 nM | – | – | – | – | Cn1cncc1C(OCc1c(-c2cccc(Cl)c2)cc(C#N)c(=O)n1C)c1ccc(C#N)c(Cl)c1 (stereo not drawn)
12000 nM | 7.3 nM | 0.84 nM | – | – | – | – | Cn1cncc1C(OCc1c(-c2cc(F)cc(F)c2)cc(C#N)c(=O)n1C)c1ccc(C#N)cc1 (stereo not drawn)
